Test results as given in patent publication US12209141B2, “Dipeptide compounds and uses thereof” (HUAHAI US INC., priority 2018, dated 2025).

Columns and labels:
[1] = tested on: venous thrombosis in SD Rat; assay: Venous thrombosis in rat; type: in vivo; parameters: wet weight of thrombus: unit not given here; conditions: for antithrombotic effect (in words): single oral dose of 10 mg/kg
Description: Animals: SD Rat (Weight 180˜210 g, Sex Male)
Solution preparation: Weigh proper amount of the test chemical, dissolved in DMSO to give the stock solutions, serial dilution with water then provided the required concentration of administration dosage.
Experimental procedures: After 3-day adaptive breeding, male Sprague-Dawley rats were randomly divided into groups: model group, positive drug group and compound groups, with 4˜6 rats in each group.
The rats in the model group were given either intravenous injection or intragastric administration with equivalent solvent, those in the positive or compound group were given either intravenous injection or intragastric administration in a dose of 10 mg/kg.
The left renal vein was ligated with a silk thread to initiate thrombus formation. After 6 hours of stasis, another ligature was made at the distal side 2 cm apart from the first, thrombus formed inside the vessel was carefully removed, blotted on wet filter paper and weighed.

[2] = Solubility tests at different pH values; type: physicochemical; conditions: aqueous buffer, thermodynamic from solid, 37° C.
Procedure: Weigh proper amount of the test chemical into buffered salt solutions with different pH value (4.0, 6.3, 7.4 and 9.0), the suspension was shaken at 37° C. for 1 hour. Precipitated and undissolved residues were removed by centrifugation. The content of the supernatant was determined by HPLC to analyze the solubility of the test chemical.

[3] = Plasma stability (incubation in rat whole blood, conversion to compound (V)); type: in vitro ADME; conditions: study period of 8 h
Procedure: An aliquot of 1 ml of rat whole blood was mixed with 50 ul of stock solution containing the test substance in DMSO (1 mg/ml) to obtain final concentration of 50 ug/ml. The mixture was incubated at 37° C. Samples were taken at time points of 0 min, 30 min, 1 h, 2 h, 4 h and 8 h, and then added to an organic solvent to terminate the reaction. After pretreatment each sample was analyzed by LC-MS/MS to determine the plasma concentrations of compound (III), compound (IV) and compound (V). […] The hydrolysis of the carbamate bond of each compound was accomplished within 30 minutes

[4] = Pharmacokinetics in rat; type: in vivo, SD Rat; conditions: single i.v. dose of 2 mg/kg
Procedure: Animals: SD Rat (Weight 200˜300 g, Sex Male)
(§1) Intragastric solution preparation: proper amount of the test chemical was weighed, and dissolved in DMSO to give the stock solution, which was then diluted serially with 0.5% CMC-Na solution to the required concentration of administration dosage.
(§2) IV solution preparation: proper amount of compound (V) was weighed, and dissolved in normal saline to give the stock solution, which was then diluted serially to the required concentration of administration dosage.
Experimental procedures: After 3-day adaptive breeding, male Sprague-Dawley rats were divided into groups randomly with 4 rats in each group.
(§3) Rats were orally given 10 mg/kg of the test compound via gavage for oral study or given 2 mg/kg of compound (V) via the femoral vein for intravenous (i.v.) study. Blood samples were collected from the orbitat at 15 min, 30 min, 1 h, 1.5 h, 2 h, 4 h, 6 h, 8 h, 10 h, and 24 h after dosing and were analyzed by LC-MS/MS after pretreatment.
(§4) WPS software was used to calculate the mean value, standard deviation, precision and accuracy of each sample.

[5] = Pharmacokinetics in dog; type: in vivo, Beagle Dog; conditions: single i.v. dose of 2 mg/kg
Procedure: as §1, §2
Experimental procedures: After 3-day adaptive breeding, male dogs were divided into groups randomly with 4 dogs in each group.
as §3, with “Dogs were” for “Rats were”, “given 5” for “given 10”, “collected” for “collected from the orbitat”
as §4

[6] = single oral administration 10 mg/kg, Model 28.4 ± 7.5
[7] = male, Sprague-Dawley, plasma, iv
[8] = single intravenous injection 10 mg/kg, compared with dabigatran, Model 22.7 ± 3.5
[9] = single intravenous injection 10 mg/kg, compared with melagatran, Model 19.6 ± 3.7

CCOC(=O)CN[C@H](CC(C)C)C(=O)N1CCC[C@H]1C(=O)NCc1ccc(C(N)=NC(=O)OCc2oc(=O)oc2C)cc1.Cl [Compound 1, N-[(ethoxy)carbonyl]methyl-D-leucyl-L-prolyl-{4-[N′-(((5-methyl-2-oxo-1,3-dioxol-4-yl)methyl)oxycarbonyl)carbamimidoyl]benzyl} amide hydrochloride]
antithrombotic effect (in words) ([1]; rat): significant antithrombotic effect | wet weight of thrombus [1, 6]: 10.8 ± 5.1 | solubility at 1 h ([2]; pH 4.0, buffered salt solution): 7720 µM | solubility at 1 h ([2]; pH 6.3, buffered salt solution): 3990 µM | solubility at 1 h ([2]; pH 7.4, buffered salt solution): 613 µM | solubility at 1 h ([2]; pH 9.0, buffered salt solution): 196 µM

CCOC(=O)CN[C@H](CC(C)C)C(=O)N1CCC[C@H]1C(=O)NCc1ccc(C(N)=NC(=O)OCCOC)cc1.Cl [Compound 2, N-[(ethoxy)carbonyl]methyl-D-leucyl-L-prolyl-{4-[N′-((2-(methoxy)ethoxy)carbonyl)carbamimidoyl]benzyl}amide hydrochloride]
antithrombotic effect (in words) ([1]; rat): significant antithrombotic effect | wet weight of thrombus [1, 6]: 16.7 ± 8.0

CCOCCOCCOC(=O)N=C(N)c1ccc(CNC(=O)[C@@H]2CCCN2C(=O)[C@@H](CC(C)C)NCC(=O)OCC)cc1.Cl [Compound 6, N-[(ethoxy)carbonyl]methyl-D-leucyl-L-prolyl-{4-[N′-((2-(2-(ethoxy)ethoxy)ethoxy)carbonyl)carbamimidoyl]benzyl} amide hydrochloride]
antithrombotic effect (in words) ([1]; rat): significant antithrombotic effect | wet weight of thrombus [1, 6]: 19.7 ± 6.4

CCOC(=O)CN[C@H](CC(C)C)C(=O)N1CCC[C@H]1C(=O)NCc1ccc(C(N)=NC(=O)OCCOCCOCc2ccccc2)cc1.Cl [Compound 8, N-[(ethoxy)carbonyl]methyl-D-leucyl-L-prolyl-{4-[N′-((2-(2-(benzyloxy)ethoxy)ethoxy)carbonyl)carbamimidoyl]benzyl} amide hydrochloride]
antithrombotic effect (in words) ([1]; rat): significant antithrombotic effect | wet weight of thrombus [1, 6]: 12.5 ± 3.1

CCOCCCOC(=O)N=C(N)c1ccc(CNC(=O)[C@@H]2CCCN2C(=O)[C@@H](CC(C)C)NCC(=O)OCC)cc1.Cl [Compound 10, N-[(ethoxy)carbonyl]methyl-D-leucyl-L-prolyl-{4-[N′-((3-(ethoxy)propoxy)carbonyl)carbamimidoyl]benzyl} amide hydrochloride]
antithrombotic effect (in words) ([1]; rat): significant antithrombotic effect | wet weight of thrombus [1, 6]: 14.6 ± 3.6 | solubility at 1 h ([2]; pH 4.0, buffered salt solution): 6520 µM | solubility at 1 h ([2]; pH 6.3, buffered salt solution): 3350 µM | solubility at 1 h ([2]; pH 7.4, buffered salt solution): 495 µM | solubility at 1 h ([2]; pH 9.0, buffered salt solution): 119 µM

CCOC(=O)CN[C@H](CC(C)C)C(=O)N1CCC[C@H]1C(=O)NCc1ccc(C(N)=NC(=O)CC(C)C(=O)OCC)cc1.Cl (stereo partly drawn) [Compound 12, N-[(ethoxy)carbonyl]methyl-D-leucyl-L-prolyl-{4-[N′-((2-(ethoxycarbonyl)propyl)carbonyl)carbamimidoyl]benzyl} amide hydrochloride]
antithrombotic effect (in words) ([1]; rat): significant antithrombotic effect | wet weight of thrombus [1, 6]: 20.5 ± 4.7

CCCCCCOC(=O)N=C(N)c1ccc(CNC(=O)[C@@H]2CCCN2C(=O)[C@@H](CC(C)C)NCC(=O)OCC)cc1.Cl [Compound 17, N-[(ethoxy)carbonyl]methyl-D-leucyl-L-prolyl-{4-[N′-(hexyloxycarbonyl)carbamimidoyl]benzyl} amide hydrochloride]
antithrombotic effect (in words) ([1]; rat): significant antithrombotic effect | wet weight of thrombus [1, 6]: 11.0 ± 5.5 | solubility at 1 h ([2]; pH 4.0, buffered salt solution): 5840 µM | solubility at 1 h ([2]; pH 6.3, buffered salt solution): 3720 µM | solubility at 1 h ([2]; pH 7.4, buffered salt solution): 693 µM | solubility at 1 h ([2]; pH 9.0, buffered salt solution): 147 µM

CCCCCCOC(=O)N=C(N)c1ccc(CNC(=O)[C@@H]2CCCN2C(=O)[C@@H](CC(C)C)NCC(=O)OC(C)(C)C)cc1.Cl [Compound 19, N-[(tert-butyloxy)carbonyl]methyl-D-leucyl-L-prolyl-{4-[N′-(hexyloxycarbonyl)carbamimidoyl]benzyl} amide hydrochloride]
antithrombotic effect (in words) ([1]; rat): significant antithrombotic effect | wet weight of thrombus [1, 6]: 13.9 ± 6.0

CC(C)C[C@@H](NCC(=O)O)C(=O)N1CCC[C@H]1C(=O)NCc1ccc(C(=N)N)cc1 [Compound of Formula (V)]
stability in plasma stability experiment (in words) [3]: substantially stable, with no significant degradation | AUC(0-inf) [4, 7]: 2960 ng·h/mL | Cmax [4, 7]: 4720 ng/mL | half-life [4, 7]: 5.02 h | CLz/F [4]: 11.6 mL/min/kg | anti-thrombotic activity (in words) ([1]; rat, single injection at 10 mg/kg): superior anti-thrombotic activity compared to dabigatran and melagatran | wet weight of thrombus [1, 8]: 13.3 ± 1.5 | wet weight of thrombus [1, 9]: 6.8 ± 5.0 | AUC(0-inf) ([5]; male, beagle, plasma, iv): 4340 ng·h/mL | Cmax ([5]; male, beagle, plasma, iv): 4040 ng/mL | half-life ([5]; male, beagle, plasma, iv): 11.8 h | CLz/F [5]: 7.9 mL/min/kg

[H]/N=C(/N)c1ccc(NCc2nc3cc(C(=O)N(CCC(=O)O)c4ccccn4)ccc3n2C)cc1 [Dabigatran, reference compound]
wet weight of thrombus [1, 8]: 15.7 ± 4.0

N=C(N)c1ccc(CNC(=O)[C@@H]2CCN2C(=O)[C@H](NCC(=O)O)C2CCCCC2)cc1 [Melagatran, reference compound]
wet weight of thrombus [1, 9]: 7.8 ± 7.6
